Reference: patent US10538487B2, “Sulfonylureas and related compounds and use of same” (priority 2015, dated 2020)
Like-named read-outs stand apart in the source and are kept apart here.

Assay: Single dose pharmacokinetic study in mice (iv 4 mg/Kg, po 20 mg/Kg), plasma concentration post-dosing
Assay type: in vivo, mouse
Conditions: male, C57BL/6, mouse, plasma, mouse; for concentration at 5 min: 5 min post dosing; for concentration at 0.25 h: 0.250 h post dosing; for concentration at 0.5 h: 0.500 h post dosing; for concentration at 1 h: 1.00 h post dosing; for concentration at 2 h: 2.00 h post dosing; for concentration at 4 h: 4.00 h post dosing; for concentration at 8 h: 8.00 h post dosing; for concentration at 24 h: 24.0 h post dosing
Description: This is advantageous leading to comparatively lower doses or less frequent administration. The procedure followed was: Male C57BL/6 mice were used at 7-9 weeks age with 3 animals per group. Mice were dosed with test compound using single intravenous bolus or oral gavage. Blood samples were taken via submandibular or saphenous vein for analysis of plasma concentrations of compound by LC-MS/MS at the following timepoints: IV (3 mice): 0.083, 0.25, 0.5, 1, 2, 4, 8 and 24 hours post dosing, PO (3 mice): 0.25, 0.5, 1, 2, 4, 8 and 24 hours post dosing. LC-MS/MS method for the quantitative determination of test compound in corresponding biological matrix was developed. […] The results are shown graphically in FIGS. 1A to 1C (MCC950) and FIGS. 2A to 2C (MCC7840).

concentration at 5 min (iv, 4 mg/kg, IV 4 mg/Kg, individual mice M1-M3, read-out: Plasma concentration, IV Time 0.0833 h): 47800 ng/mL
concentration at 5 min (iv, 4 mg/kg, IV 4 mg/Kg, mean of 3 mice, read-out: Plasma concentration, IV Time 0.0833 h, Mean IV): 42800 ng/mL
concentration at 0.25 h (iv, 4 mg/kg, IV 4 mg/Kg, individual mice M1-M3, read-out: Plasma concentration, IV Time 0.250 h): 28100 ng/mL
concentration at 0.25 h (iv, 4 mg/kg, IV 4 mg/Kg, mean of 3 mice, read-out: Plasma concentration, IV Time 0.250 h, Mean IV): 28900 ng/mL
concentration at 0.5 h (iv, 4 mg/kg, IV 4 mg/Kg, individual mice M1-M3, read-out: Plasma concentration, IV Time 0.500 h): 25200 ng/mL
concentration at 0.5 h (iv, 4 mg/kg, IV 4 mg/Kg, mean of 3 mice, read-out: Plasma concentration, IV Time 0.500 h, Mean IV): 25000 ng/mL
concentration at 1 h (iv, 4 mg/kg, IV 4 mg/Kg, individual mice M1-M3, read-out: Plasma concentration, IV Time 1.00 h): 19900 ng/mL
concentration at 1 h (iv, 4 mg/kg, IV 4 mg/Kg, mean of 3 mice, read-out: Plasma concentration, IV Time 1.00 h, Mean IV): 18700 ng/mL
concentration at 2 h (iv, 4 mg/kg, IV 4 mg/Kg, individual mice M1-M3, read-out: Plasma concentration, IV Time 2.00 h): 13300 ng/mL
concentration at 2 h (iv, 4 mg/kg, IV 4 mg/Kg, mean of 3 mice, read-out: Plasma concentration, IV Time 2.00 h, Mean IV): 16000 ng/mL
concentration at 4 h (iv, 4 mg/kg, IV 4 mg/Kg, individual mice M1-M3, read-out: Plasma concentration, IV Time 4.00 h): 6520 ng/mL
concentration at 4 h (iv, 4 mg/kg, IV 4 mg/Kg, mean of 3 mice, read-out: Plasma concentration, IV Time 4.00 h, Mean IV): 7890 ng/mL
concentration at 8 h (iv, 4 mg/kg, IV 4 mg/Kg, individual mice M1-M3, read-out: Plasma concentration, IV Time 8.00 h): 3490 ng/mL
concentration at 8 h (iv, 4 mg/kg, IV 4 mg/Kg, mean of 3 mice, read-out: Plasma concentration, IV Time 8.00 h, Mean IV): 3760 ng/mL
concentration at 24 h (iv, 4 mg/kg, IV 4 mg/Kg, individual mice M1-M3, read-out: Plasma concentration, IV Time 24.0 h): 149 ng/mL
concentration at 24 h (iv, 4 mg/kg, IV 4 mg/Kg, mean of 3 mice, read-out: Plasma concentration, IV Time 24.0 h, Mean IV): 134 ng/mL
AUC0-inf (iv, 4 mg/kg, IV 4 mg/Kg, individual mice M1-M3, read-out: AUC0-inf): 101 µg·h/mL
AUC(0-t) (iv, 4 mg/kg, IV 4 mg/Kg, individual mice M1-M3, read-out: AUC0-last): 100 µg·h/mL
C0 (iv, 4 mg/kg, IV 4 mg/Kg, individual mice M1-M3, read-out: C0): 62300 ng/mL
clearance (iv, 4 mg/kg, IV 4 mg/Kg, individual mice M1-M3, read-out: Cl): 0.659 mL/min/kg
MRT inf (iv, 4 mg/kg, IV 4 mg/Kg, individual mice M1-M3, read-out: MRT0-inf): 4.3 h
MRT last (iv, 4 mg/kg, IV 4 mg/Kg, individual mice M1-M3, read-out: MRT0-last): 4.11 h
half-life (iv, 4 mg/kg, IV 4 mg/Kg, individual mice M1-M3, read-out: T1/2 (converted)): 3.62 h
Vd (iv, 4 mg/kg, IV 4 mg/Kg, individual mice M1-M3, read-out: Vdss): 0.17 L/kg
AUC0-inf (iv, 4 mg/kg, IV 4 mg/Kg, mean of 3 mice, read-out: AUC0-inf, Mean IV): 108 µg·h/mL
AUC(0-t) (iv, 4 mg/kg, IV 4 mg/Kg, mean of 3 mice, read-out: AUC0-last, Mean IV): 107 µg·h/mL
clearance (iv, 4 mg/kg, IV 4 mg/Kg, mean of 3 mice, read-out: Cl, Mean IV): 0.621 mL/min/kg
MRT inf (iv, 4 mg/kg, IV 4 mg/Kg, mean of 3 mice, read-out: MRT0-inf, Mean IV): 4.29 h
MRT last (iv, 4 mg/kg, IV 4 mg/Kg, mean of 3 mice, read-out: MRT0-last, Mean IV): 4.13 h
half-life (iv, 4 mg/kg, IV 4 mg/Kg, mean of 3 mice, read-out: T1/2, Mean IV (converted)): 3.39 h
Vd (iv, 4 mg/kg, IV 4 mg/Kg, mean of 3 mice, read-out: Vdss, Mean IV): 0.16 L/kg
concentration at 0.25 h (po, 20 mg/kg, PO 20 mg/Kg, mean of 3 mice, read-out: Plasma concentration, PO Time 0.250 h, Mean PO): 60500 ng/mL
concentration at 0.5 h (po, 20 mg/kg, PO 20 mg/Kg, mean of 3 mice, read-out: Plasma concentration, PO Time 0.500 h, Mean PO): 50300 ng/mL
concentration at 1 h (po, 20 mg/kg, PO 20 mg/Kg, mean of 3 mice, read-out: Plasma concentration, PO Time 1.00 h, Mean PO): 42300 ng/mL
concentration at 2 h (po, 20 mg/kg, PO 20 mg/Kg, mean of 3 mice, read-out: Plasma concentration, PO Time 2.00 h, Mean PO): 42600 ng/mL
concentration at 4 h (po, 20 mg/kg, PO 20 mg/Kg, mean of 3 mice, read-out: Plasma concentration, PO Time 4.00 h, Mean PO): 26600 ng/mL
concentration at 8 h (po, 20 mg/kg, PO 20 mg/Kg, mean of 3 mice, read-out: Plasma concentration, PO Time 8.00 h, Mean PO): 18900 ng/mL
concentration at 24 h (po, 20 mg/kg, PO 20 mg/Kg, mean of 3 mice, read-out: Plasma concentration, PO Time 24.0 h, Mean PO): 1470 ng/mL
AUC0-inf (po, 20 mg/kg, PO 20 mg/Kg, individual mice M4-M6, read-out: AUC0-inf): 368 µg·h/mL
MRT last (po, 20 mg/kg, PO 20 mg/Kg, individual mice M4-M6, read-out: MRT0-last): 4.8 h
Tmax (po, 20 mg/kg, PO 20 mg/Kg, individual mice M4-M6, read-out: Tmax): 0.25 h
AUC0-inf (po, 20 mg/kg, PO 20 mg/Kg, mean of 3 mice, read-out: AUC0-inf, Mean PO): 362 µg·h/mL
AUC(0-t) (po, 20 mg/kg, PO 20 mg/Kg, mean of 3 mice, read-out: AUC0-last, Mean PO): 350 µg·h/mL
Cmax (po, 20 mg/kg, PO 20 mg/Kg, mean of 3 mice, read-out: Cmax, Mean PO): 60500 ng/mL
MRT inf (po, 20 mg/kg, PO 20 mg/Kg, mean of 3 mice, read-out: MRT0-inf, Mean PO): 7.52 h
SMILES: CC(C)n1ccc(S(=O)(=O)NC(=O)Nc2c3c(cc4c2CCC4)CCC3)n1 [MCC_007840_002]
